Tested on: balloon-injured rabbit femoral artery
Assay: [125I]-S-NO-BSA binding to balloon-injured femoral artery
Format: in vivo
Protocol: Rabbit femoral arteries were isolated and balloon-injured as described in Example 1 and [^125I]-S-NO-BSA applied either directly into the injured artery (local) or injected intraarterially via the opposite femoral artery (systemic). [^125I]-S-NO-BSA binding was determined by quantification of radioactivity after flow was reestablished for a period of 15 minutes. Non-specific [^125I]-S-NO-BSA binding (sham) was determined from uninjured carotid artery harvested simultaneously with femoral arteries. Data are presented as mean +/− SEM per gram of wet tissue weight, and are derived from four animals. *P<0.0.029, local vs. systemic delivery and +/+P<0.05, systemic injured vs. sham.
Preparation of [^125I]-labeled S-NO-BSA and [^111In] labeled platelets: BSA (0.1 mg/ml) was combined with two IODO-BEADS and 0.1 mCi of Na[^125I]. The solution was incubated for 45 minutes and unincorporated Na[^125I] was removed by gel filtration with Sephadex G25 equilibrated with TBS containing 0.1 mg/ml BSA. […] [^111In]-labeling of platelets was performed after the method of Wistow and colleagues.^(17)
Animal Preparation: All animal preparations were performed within the institutional guidelines of the Brockton/West Roxbury Department of Veteran Affairs Medical Center and Boston University Medical Center, and in accordance with the guiding principles of the American Physiological Society. New Zealand white rabbits (3.5-4.2 kg) of either sex were premedicated with 5 mg/kg intramuscular (IM) xylazine hydrochlolide (Miles Pharmaceuticals, Shawnee Mission, Kans.), and 0.1 mg/kg subcutaneous (SC) atropine sulfate (Lyphomed, Deerfield, Ill.) fifteen minutes prior to the induction of anesthesia. Anesthesia was induced with 40 mg/kg IM ketamine hydrochloride (Fort Dodge Laboratories, Fort Dodge, Ind.) and 5 mg/kg IM acepromazine maleate (Aveco Company, Inc., Fort Dodge, Ind.). Additional doses of ketamine hydrochloride were administered as necessary to maintain anesthesia. For survival studies, 100,000 U penicillin G (Apothecon of Bristol-Myers Squibb, Princeton, N.J.), was administered IM perioperatively. […]

“[^125I]-S-NO-BSA: [125I]-labeled S-nitroso-albumin used for binding studies” was tested, and the “binding to injured femoral artery, local delivery” value (applied directly into injured artery, 15 minutes flow, n=4) was 140.4+/−3.9 ×10^3 cpm/gm, the “binding to injured femoral artery, systemic delivery” value (injected intraarterially via opposite femoral artery, 15 minutes flow, n=4) was 5.4+/−0.9 ×10^3 cpm/gm and the “increase in binding, local vs systemic delivery” value (injured femoral artery) was 26 fold.

From US6352709B1, “Localized use of nitric oxide-adducts to prevent internal tissue damage” (NitroMed, Inc., priority 1993, dated 2002)
